Reference: patent US20040038233A1, “Diagnosis kit for mycobacterium species indentification and drug-resistance detection and manufacturing method thereof” (priority 2000, published 2004)

Tests used:
[1] = test system: Mycobacterium tuberculosis; type: cell-based
[2] = test system: strains having mutations of 511 (Leu>Pro), 516 (Asp>Tyr), 516 (Asp>Val), and 522 (Ser>Leu); settings: strains with mutations 511 (Leu>Pro); cited from earlier work

For `CO[C@H]1/C=C/O[C@@]2(C)Oc3c(C)c(O)c4c(c3C2=O)C2=NC3(CCN(CC(C)C)CC3)NC2=C(NC(=O)/C(C)=C\C=C\[C@H](C)[C@H](O)[C@@H](C)[C@@H](O)[C@@H](C)[C@H](OC(C)=O)[C@@H]1C)C4=O` [rifabutin, Rifabutin], the drug-susceptibility test result [1] is listed as “resistance”, the resistance classification [2] is listed as “low-level resistance” and the “rifabutin MIC” value [2] is listed as no more than 5 µg/mL.
